Assays:
[1] = In vivo pharmacokinetics study, oral and intravenous dosing; details: rat, 1 mg/kg; for half-life / bioavailability: male, Sprague-Dawley, plasma; for bioavailability: oral
Method: Absorption and metabolic stability were studied using an in vivo pharmacokinetics assay. Drug levels were assessed using ultra-performance LC/TOF-MS.
Three male Sprague-Dawley rats, 200-300 g, were dosed per route. Test compound was administered either orally or intravenously (dose level of 1 mg/kg body weight). Test compound was formulated in 50:50 tetraethylene glycol:PBS for both routes. Animals were given free access to food throughout the study. On the day prior to dosing, the carotid artery was cannulated for sample collection and for the intravenous study the jugular vein was cannulated to enable dosing.
Blood samples were taken from the carotid artery at the following time points and placed in heparinised tubes: • Oral dosing—predose, 0.25, 0.5, 1, 2, 4, 8 and 24 hours post dose. • IV dosing—predose, 0.08, 0.25, 0.5, 1, 2, 4 and 8 hours post dose.
Blood samples were centrifuged to obtain plasma, which was transferred to a separate container and frozen at −20° C.
The supernatants were collected for analysis. The standard samples were prepared similarly, after spiking blank rat plasma samples to study compound concentrations at 1, 2, 5, 10, 20, 50, 100, 200, 500 and 1000 ng/mL. In addition, extra samples were prepared from 0-1 hour i.v. samples by diluting 1/20 with 50% aqueous acetonitrile to avoid exceeding the linear range of the analytical method.
A Waters Acquity liquid ultra-performance chromatographic system (Waters Corp., Milford, Mass., USA) with autosampler, vacuum degasser and column oven was used. The analytical column used for all compounds was a Waters BEH C18, (2.1×50 mm, 1.7 μm, Waters Corp, Milford, Mass., USA) together with a 0.2 μm on-line filter before the column. The eluents were 0.1% acetic acid (A, pH 3.2) and methanol (B). Gradient elution from 5% to 60% B in two minutes was employed, followed by one minute gradient to 90% B and column equilibration. The flow rate was 0.5 mL/min and the column oven temperature was 35° C. The flow was directed to the MS via Water Acquity photo-diode-array (PDA) detector. LC/TOF-MS data were recorded with a Micromass LCT Premier XE time-of-flight (TOF) mass spectrometer (Micromass Ltd., Manchester, England) equipped with a LockSpray electrospray ionization source. A positive ionization mode of electrospray was used for all compounds. The mass range of m/z 100-900 was acquired. The W-option of the reflector was used, and the DRE (dynamic range enhancement) option was set to on. The mass spectrometer and HPLC system were operated under Micromass MassLynx 4.1 software. […] Masslynx 4.1 software was used for controlling the instrumentation and for data processing.
The pharmacokinetic parameters for the test compounds were calculated by WinNonlin Pro (Pharsight Corp, CA) using standard noncompartmental methods. The elimination phase half-life (t1/2) was calculated by least-squares regression analysis of the terminal linear part of the log concentration—time curve. The area under the plasma concentration—time curve (AUC) was determined by use of the linear trapezoidal rule up to the last measurable concentration and thereafter by extrapolation of the terminal elimination phase to infinity.

[2] = system: caspase 3; assay: Caspase induction study (Nucview488 fluorogenic substrate) in the presence of TNFα; format: cell-based; details: human monocytes, 10 μM test compound, 10 ng/mL TNFα, Nucview488 stain
Method: The ability to activate caspase 3 was studied using a fluorogenic enzyme substrate assay.
Briefly, human primary monocytes were isolated from whole blood using Ficoll gradients. The resulting cells were plated into microwell plates for 24 hours after which non-adherent cells were removed by washing. Cells were differentiated in the presence of 100 ng/mL MCSF. Cells were pre-treated with 10 μM test compound for 1 hour prior to stimulation with 10 ng/mL TNFα. Caspase 3 activation as an indicator of apoptosis was detected using the Nucview488 stain, which was added one hour prior to visualisation. The Nucview488 stain indicates the activation of caspase 3 (CPP32, apopain, YAMA), a cysteine peptidase which plays a key role in the induction of apoptosis in individual whole mammalian cells. Essentially, Nucview488 consists of a fluorogenic DNA dye and a DEVD substrate moiety specific for caspase 3. In itself, Nucview488 is nonfluorescent. However, upon entering the cell cytoplasm, Nucview488 is cleaved by caspase 3 to form a high-affinity DNA dye. The released DNA dye migrates to the cell nucleus to stain the nucleus bright green. This fluorescent staining produced in response to caspase 3 activity is monitored using fluorescent light microscopy.

**Q.** With `O=S(=O)(N[C@H]1CC[C@@H](CO)C1)c1ccc(-c2ccc(F)cc2F)cc1` [ABD773, 2′,4′-Difluoro-N-((1 S,3R)-3-(hydroxymethyl)cyclopentyl)biphenyl-4-sulfonamide] as the compound, how does the half-life ([1]; iv) read?
**A.** 0.81 h

**Q.** And the bioavailability [1]?
**A.** 13%

**Q.** What about the half-life ([1]; po) of the same compound?
**A.** 3.17 h

**Q.** And the AUC ([1]; i.v.)?
**A.** 11900 ng/mL/min

**Q.** And the AUC ([1]; p.o.)?
**A.** 1500 ng/mL/min

**Q.** For `O=S(=O)(N[C@H]1CC[C@@H](CO)CC1)c1ccc(-c2ccc(F)cc2F)cc1` [ABD781, 2′,4′-Difluoro-N-(cis-4-(hydroxymethyl)cyclohexyl)biphenyl-4-sulfonamide], which “caspase 3 activation (fluorescence detected by light microscopy)” value [2] is on record?
**A.** significant activation of caspase 3

**Q.** And the half-life ([1]; iv)?
**A.** 0.87 h

**Q.** What about the bioavailability [1] of the same compound?
**A.** 43%

**Q.** And the half-life ([1]; po)?
**A.** 3.28 h

**Q.** And the AUC ([1]; i.v.)?
**A.** 22400 ng/mL/min

**Q.** What about the AUC ([1]; p.o.) of the same compound?
**A.** 9600 ng/mL/min

From US9616037B2, “Aryl-phenyl-sulfonamido-cycloalkyl compounds and their use” (PIMCO 2664 Limited, priority 2008, dated 2017)
